Measurements as given in patent US20100331269A1, “TRITERPENES DERIVATIVES AND USES THEREOF AS ANTITUMOR AGENTS OR ANTI-INFLAMMATORY AGENTS” (priority 2006, published 2010).

What was measured:
[1] = Determination of the maximum tolerated dose (MTD) after a single IP injection; type: in vivo, mice; conditions: for CSS Closed eyes / CSS Diarrhea / CSS Lethargy / CSS Rough coat / CSS Total / Number of deaths: 5 mice
Method: Groups of five mice (Charles River) received a single IP injection of 3-O-α-L-rhamnopyranoside betulinic acid (22) in DMSO at doses of 50, 100, 250 and 500 mg/kg of body weight. […] A group of five control mice received the vehicle (DMSO). […] For each animal, a score was calculated based on the absence (value 0) or presence (value 1) of diarrhoea, lethargy, rough coat and closed eyes. A clinical state score (CSS) was then calculated per group by summing individual scores. All the mice were weighed daily during 3 days following the injection. The maximal weight loss was determined 24 hours and 3 days following the injection. The MTD was defined as the highest single dose that met all the following criteria: 1) zero death per group; 2) maximal weight loss 20% in non-tumour bearing animals; and 3) CSS value lower than 15.

[2] = test system: A-549 human lung carcinoma cells; test: Cytotoxicity, resazurin metabolism assay, A-549; type: cell-based; conditions: 48 h, mean ± SD
How it was run: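 Cells plated at 5×10^3/well, adhered 16 h, then exposed to increasing compound concentrations (DMSO) for 48 h. Viability by resazurin reduction, fluorescence ex 530/em 590 nm, blank-subtracted versus control wells; IC50 as mean±SD from three experiments in triplicate.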

[3] = Toxicity of treatment by body weight of tumour-bearing mice; conditions: Lewis lung cancer-bearing mice, IP treatment, day 13
Source text: Individual dose were based on the body weight of each mouse.

[4] = test system: MDA-MB-231 human breast adenocarcinoma cells; test: Cytotoxicity, resazurin metabolism assay, MDA-MB-231; type: cell-based; conditions: mean ± SD
Source text: (§1) Human lung carcinoma (A-549), human colon adenocarcinoma (DLD-1), human normal fibroblasts (WS1), mice melanoma (B16-F1), Human glioma (U-251), Human hepatocellular carcinoma (HEP G2), Human prostate adenocarcinoma (PC-3), Human ovary teratocarcinoma metastatic (PA-1), Human breast adenocarcinona metastatic (MDA-MB-231), Human breast adenocarcinoma (MCF-7) and Human malignant melanoma (SK-MEL-2) cell lines were obtained from the American Type Culture Collection (ATCC). All cell lines were cultured in minimum essential medium containing Earle's salts and L-glutamine (Mediatech Cellgro, Va.), to which was added 10% fetal bovine serum (Hyclone), vitamins (1×), penicillin (100 I.U./mL) and streptomycin (100 μg/mL), essential amino acids (1×) and sodium pyruvate (1×) (Mediatech Cellgro, Va.). Cells were kept at 37° C. in a humidified environment containing 5% CO2.
(§2) Exponentially growing cells were plated in 96-well microplates (Costar, Corning Inc.) at a density of 5×10^3 cells per well in 100 μL of culture medium and were allowed to adhere for 16 hours before treatment. Increasing concentrations of each compound in DMSO (Sigma-Aldrich) were then added (100 μL per well) and the cells were incubated for 48 h. […] Cytotoxicity was assessed using resazurin (O'Brien, J. et al., Eur. J. Biochem. 2000, 267, 5421-5426) on an automated 96-well Fluoroskan Ascent F1™ plate reader (Labsystems) using excitation and emission wavelengths of 530 nm and 590 nm, respectively. Fluorescence was proportional to the cellular metabolic activity in each well. Survival percentage was defined as the fluorescence in experimental wells compared to that in control wells after subtraction of blank values. Each experiment was carried out three times in triplicata. IC50 results were expressed as mean±standard deviation.
(§3) Compounds presented in Table 5 below were also tested in the following tumour cell lines: U-251 (Human glioma), HEP G2 (Human hepatocellular carcinoma), PC-3 (Human prostate adenocarcinoma), PA-1 (Human ovary teratocarcinoma metastatic), MDA-MB-231 (Human breast adenocarcinona metastatic), MCF-7 (Human breast adenocarcinoma) and SK-MEL-2 (Human malignant melanoma).

A-549 cells = test: Cytotoxicity, Hoechst DNA assay, A-549; type: cell-based, human; conditions: ± SD
How it was run: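 Cells grown at 37 °C, 5% CO2, in MEM with 10% FBS. Compound cytotoxicity was measured by Hoechst DNA staining. Activity is expressed as IC50, the concentration inhibiting 50% of cell growth.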

U-251 human glioma cells = test: Cytotoxicity, resazurin metabolism assay, U-251; type: cell-based; conditions: mean ± SD
Source text: as §1, §2, §3

[5] = test system: SK-Mel-2 human melanoma cells; test: Cytotoxicity, resazurin metabolism assay, SK-Mel-2; type: cell-based; conditions: mean ± SD
Source text: as §1, §2, §3

Structure (SMILES): C=C(C)[C@@H]1CC[C@]2(C(=O)O)CC[C@]3(C)[C@H](CC[C@@H]4[C@@]5(C)CC[C@H](O[C@@H]6O[C@@H](C)[C@H](O)[C@@H](O)[C@H]6O)C(C)(C)[C@@H]5CC[C@]43C)[C@@H]12 [Compound 22, 3-O-α-L-Rhamnopyranoside of betulinic acid]
- Max. weight loss after 24 hours ([1]; 50 mg/kg single IP): 11%
- Max. weight loss after 3 days ([1]; 50 mg/kg single IP): 0%
- CSS Closed eyes ([1]; 50 mg/kg single IP): 0
- CSS Diarrhea ([1]; 50 mg/kg single IP): 0
- CSS Lethargy ([1]; 50 mg/kg single IP): 0
- CSS Rough coat ([1]; 50 mg/kg single IP): 0
- CSS Total ([1]; 50 mg/kg single IP): 0
- Number of deaths ([1]; 50 mg/kg single IP): 0
- Max. weight loss after 24 hours ([1]; 100 mg/kg single IP): 14%
- Max. weight loss after 3 days ([1]; 100 mg/kg single IP): 0%
- CSS Closed eyes ([1]; 100 mg/kg single IP): 0
- CSS Diarrhea ([1]; 100 mg/kg single IP): 0
- CSS Lethargy ([1]; 100 mg/kg single IP): 0
- CSS Rough coat ([1]; 100 mg/kg single IP): 0
- CSS Total ([1]; 100 mg/kg single IP): 0
- Number of deaths ([1]; 100 mg/kg single IP): 0
- Max. weight loss after 24 hours ([1]; 250 mg/kg single IP): 9%
- Max. weight loss after 3 days ([1]; 250 mg/kg single IP): 0%
- CSS Closed eyes ([1]; 250 mg/kg single IP): 5
- CSS Diarrhea ([1]; 250 mg/kg single IP): 0
- CSS Lethargy ([1]; 250 mg/kg single IP): 0
- CSS Rough coat ([1]; 250 mg/kg single IP): 5
- CSS Total ([1]; 250 mg/kg single IP): 10
- Number of deaths ([1]; 250 mg/kg single IP): 0
- Max. weight loss after 24 hours ([1]; 500 mg/kg single IP): 11%
- Max. weight loss after 3 days ([1]; 500 mg/kg single IP): 0%
- Rough coat and closed eyes observed, share of the mice ([1]; 500 mg/kg single IP): 100%
- CSS Closed eyes ([1]; 500 mg/kg single IP): 5
- CSS Diarrhea ([1]; 500 mg/kg single IP): 5
- CSS Lethargy ([1]; 500 mg/kg single IP): 2
- CSS Rough coat ([1]; 500 mg/kg single IP): 5
- CSS Total ([1]; 500 mg/kg single IP): 17
- Number of deaths ([1]; 500 mg/kg single IP): 0
- Calculated dose for an average human weighting 60 kg ([1]; 60 kg human): 139.8 mg
- Body weight loss after 24 h ([1]; all tested doses (50-500 mg/kg), single IP): 9-14%
- Mortality ([1]; all tested doses, single IP): no mortality
- Weight loss after 3 days (returned to initial weight) ([1]; all tested doses, single IP): 0%
- Calculated MTD (human, after security factor of 10) ([1]; human equivalent dose divided by 10): 2.33 mg/kg
- MTD (maximum tolerated dose) ([1]; mice, single IP injection in DMSO): 250 mg/kg
- MTD equivalent in human (human equivalent dose) ([1]; mouse MTD 250 mg/kg divided by conversion factor 12.3): 20.33 mg/kg
- IC50 [2]: 2.6 ± 0.6 µM
- Toxicity / body weight loss compared with controls [3]: did not show any sign of toxicity or body weight loss
- IC50 [4]: 19 ± 2 µM
- IC50 (A-549 cells): 2.6 ± 0.3 µM
- IC50 (U-251 human glioma cells): 20 ± 2 µM
- IC50 [5]: 20 ± 7 µM
